Key:
[1] = molecular target: T1, CH1 domain of p300 and the C-TAD domain of HIF-1α (Homo sapiens, UniProt Q09472); test: HIF-1α/p300 assay, dose–response version of the screening assay; format: binding; conditions: for inhibition of the protein–protein interaction: at 500 μM (high test concentration)
[2] = test system: chloroquine-sensitive (D6) strain of Plasmodium falciparum; test: Antimalarial inhibitory activity, chloroquine-sensitive; format: cell-based; conditions: P. falciparum D6 strain
[3] = test system: chloroquine-resistant (W2) strain of Plasmodium falciparum; test: Antimalarial inhibitory activity, chloroquine-resistant; format: cell-based; conditions: P. falciparum W2 strain
[4] = molecular target: T1, CH1 domain of p300 and the C-TAD domain of HIF-1α; conditions: earlier report; cited from earlier work

T1 sequence (Q09472 331-417 limits assumed): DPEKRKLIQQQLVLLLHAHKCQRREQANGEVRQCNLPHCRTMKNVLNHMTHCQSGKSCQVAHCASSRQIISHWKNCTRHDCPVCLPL

COc1ccc(C2(c3[nH]c(N)nc3-c3ccc(O)cc3)N=C3N=CC=C4c5ccccc5N=C2N43)cc1 (stereo not drawn) [compound 1, eudistidine C]
inhibition of the protein–protein interaction [1]: approximately 48%

COc1ccc(C2(O)N=C3N=CC=C4c5ccccc5N=C2N43)cc1 (stereo not drawn) [compound 2, eudistidine A]
IC50 [2]: 1.4 µM
antimalarial effect (in words) [2]: significant antimalarial effects
IC50 [3]: 1.1 µM
antimalarial effect (in words) [3]: significant antimalarial effects
inhibition of the protein–protein interaction between p300 and HIF-1α (in words) [4]: inhibited

(+)-(R)-eudistidine C [1a]
inhibition of the protein–protein interaction [1]: 27%
antimalarial effect (in words) [2]: significant antimalarial effects
antimalarial effect (in words) [3]: significant antimalarial effects

(−)-(S)-eudistidine C [1b]
IC50 ([1]; HIF-1α/p300 assay): 276 µM
antimalarial effect (in words) [2]: significant antimalarial effects
antimalarial effect (in words) [3]: significant antimalarial effects

Source: article PMC6350249 (The Journal of organic chemistry, 2016)
